This note sets out measurements from ChEMBL document CHEMBL1201862, “PubChem BioAssay data set” (2004).

Test systems include 786-0; ACHN; CAKI-1; DU-145; EKVX; HCT-15; KM12; MCF7; MDA-MB-231; MDA-N; NCI-H460; NCI-H522; OVCAR-8; RPMI-8226; RXF 393; SK-MEL-28; SNB-19; TK-10; UACC-257; UACC-62.
Common to all, as to test: NCI anticancer screen, dose series, 48 h

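Cultured in 96-well plates, cells were exposed to test compound for 48 hours across five concentrations. GI50 is the concentration that inhibits growth by half.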 Activity calls are given as the source filed them. Cut-off read from the data, not from the text of the source: active = GI50 up to about 1.1 µM and inactive = higher.

For `NS(=O)(=O)c1nnc(NC(=O)C23CC4CC(CC(C4)C2)C3)s1`, the GI50 in the experiment with 786-0 was > 100 µM (inactive); in the experiment on ACHN it was > 100 µM (inactive); in the experiment with CAKI-1, > 100 µM (inactive); in the experiment with DU-145 it was > 100 µM (inactive); in the experiment on EKVX, > 100 µM (inactive); in the experiment with HCT-15, > 100 µM. Moreover, the GI50 is > 100 µM (inactive) in the experiment on KM12; > 100 µM (inactive) with MCF7; > 100 µM (inactive) in the experiment on MDA-MB-231; > 100 µM (inactive) in the experiment on MDA-N; 60.1 µM (inactive) with NCI-H460; 68.2 µM (inactive) in the experiment on NCI-H522. The GI50 was > 100 µM (inactive) in the experiment on OVCAR-8; 88.9 µM (inactive) in the experiment with RPMI-8226; 61.7 µM (inactive) with RXF 393; > 100 µM (inactive) in the experiment on SK-MEL-28; > 100 µM (inactive) in the experiment with SNB-19; > 100 µM (inactive) in the experiment with TK-10. In addition, the GI50 in the experiment with UACC-257 and with UACC-62 was > 100 µM (inactive) each time.

With `CCOC(=O)C1(C#N)C(C#N)(C#N)C1(C#N)C#N`, the GI50 with 786-0 was > 100 µM (inactive); in the experiment on ACHN, > 100 µM (inactive); in the experiment with CAKI-1, > 100 µM (inactive); with DU-145, > 100 µM (inactive); with EKVX, > 100 µM (inactive); in the experiment with HCT-15 it was > 100 µM. For the same compound, the GI50 in the experiment on KM12, in the experiment on MCF7, in the experiment on MDA-MB-231, in the experiment with MDA-N, with NCI-H460 and in the experiment on NCI-H522 was > 100 µM (inactive) each time. Also, the GI50 with OVCAR-8, with RPMI-8226, with RXF 393, with SK-MEL-28, in the experiment with SNB-19 and with TK-10 was > 100 µM (inactive) in each case. The GI50 in the experiment with UACC-257 and in the experiment with UACC-62 was > 100 µM (inactive) throughout.

As to `O=C(N/N=C(COc1cccc(Cl)c1)\N=C\c1ccncc1)c1ccncc1`, the GI50 with 786-0 is > 100 µM (inactive); in the experiment with ACHN it was > 100 µM (inactive); with CAKI-1, > 100 µM (inactive); in the experiment on DU-145 it was > 100 µM (inactive); in the experiment on EKVX, > 100 µM (inactive); with HCT-15, > 100 µM. The GI50 with KM12, with MCF7, in the experiment with MDA-MB-231, with MDA-N, with NCI-H460 and in the experiment on NCI-H522 was > 100 µM (inactive) each time. The GI50 with OVCAR-8 was > 100 µM (inactive); with RPMI-8226, > 100 µM (inactive); with RXF 393, 36.4 µM (inactive); with SK-MEL-28 it was > 100 µM (inactive); in the experiment with SNB-19 it was > 100 µM (inactive); with TK-10, > 100 µM (inactive). The GI50 in the experiment on UACC-257 and with UACC-62 was > 100 µM (inactive) each time.

Take `CN(C)CCCNC(=O)c1cc(NC(=O)c2cc(NS(=O)(=O)c3ccc4c(c3)C(=O)c3ccccc3C4=O)cn2C)cn1C`: the GI50 in the experiment with 786-0 was > 100 µM (inactive); in the experiment on ACHN, > 100 µM (inactive); with CAKI-1 it was > 100 µM (inactive); in the experiment on DU-145, > 100 µM (inactive); with EKVX, > 100 µM (inactive); in the experiment with HCT-15, > 100 µM. Also, the GI50 with KM12 was 80.7 µM (inactive); in the experiment with MCF7 it was 31.8 µM (inactive); with MDA-MB-231, > 100 µM (inactive); in the experiment with MDA-N, 88.5 µM (inactive); with NCI-H460, 45 µM (inactive); in the experiment with NCI-H522 it was 93.5 µM (inactive). In addition, the GI50 was > 100 µM (inactive) with OVCAR-8; 21.5 µM (inactive) in the experiment on RPMI-8226; > 100 µM (inactive) in the experiment on RXF 393; 86.5 µM (inactive) in the experiment with SK-MEL-28; 41.5 µM (inactive) in the experiment on SNB-19; > 100 µM (inactive) with TK-10. For the same compound, the GI50 with UACC-257 was 45.8 µM (inactive); in the experiment on UACC-62, 89.9 µM (inactive).
